This is an account of results in paper PMC9944328 (Nature Communications, 2023).

Broadly, the Emax is the greatest response seen or fitted, relative to the assay's reference. As usually defined, the EC50 is the concentration giving half of the maximal effect.

One test concerns SSTR2 Y302A mutant. More on the design: method as in earlier work. The conditions noted are these: Y302(7.43)A; ref 20 of peer review file (Zhao, W. et al., 2022); cited from earlier work.
The target in test [1] is T1, SSTR2 mutants (Homo sapiens, UniProt P30874, N276A).
T1 sequence (P30874 whole entry N276A): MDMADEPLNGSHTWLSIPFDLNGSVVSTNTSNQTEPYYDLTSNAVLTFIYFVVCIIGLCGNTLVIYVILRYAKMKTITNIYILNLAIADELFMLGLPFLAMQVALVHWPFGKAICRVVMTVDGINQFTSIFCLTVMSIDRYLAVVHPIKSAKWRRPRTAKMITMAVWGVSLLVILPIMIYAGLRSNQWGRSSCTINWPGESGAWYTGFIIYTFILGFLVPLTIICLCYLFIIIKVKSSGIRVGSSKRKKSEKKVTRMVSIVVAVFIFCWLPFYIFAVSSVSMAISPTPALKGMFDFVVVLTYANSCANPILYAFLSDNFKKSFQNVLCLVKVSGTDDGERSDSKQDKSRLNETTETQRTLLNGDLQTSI
The test system of test [2] is SSTR3 mutants. Briefly: SSTRs Gi-mediated cAMP inhibition, GloSensor, HEK293 (SSTR3 mutants). Format: cell-based, human. More on the design: Bottom / Top / Span / Top (best-fit): unit not given here. Particulars: H192(45.51)T and N101(2.64)V in SSTR3. The protocol: (§1) The levels of the intracellular 3′, 5′-cyclic AMP (cAMP) were measured by the GloSensor cAMP assay (Promega) as described in the previous studies[28],[41] which has been widely used. The human full-length SSTRs and mutants were cloned into the pcDNA3.1+ vector with a HA signal sequence followed by a Flag tag at the N-terminus. […] Cells were then co-transfected with SSTR wild-type or mutants and GloSensor plasmids. After 24 h of transfection, the cells were dissociated with TrypLE™ Express Enzyme (1X) (Thermo Fisher Scientific) and collected by centrifugation at 500 × g for 5 min. Then the collected cells were suspended in Hank’s balanced salt solution [HBSS (Thermo Fisher Scientific)] supplemented with […] potassium salt solution (YEASEN), and then the suspension cells were seeded into 96-well plates with 90 μl/well. After incubating at room temperature for 40 min, 5 μM forskolin and ligands diluted in HBSS were added to each well and the plates were incubated at room temperature for 15 min. […] signals were measured using the Synergy H1 microplate reader (BioTek) and the data presented are means of at least three independent experiments.

For test [3], the target named is SSTR3 mutants (Homo sapiens, UniProt P32745, F296D). The description is as above. The test is classed as cell-based. Details: Bottom / Top / Span / Top (best-fit): unit not given here. The protocol:
as §1

The target in test [4] is SSTR3 mutants (Homo sapiens, UniProt P32745, N104V). Described as above. Format: cell-based. Details: Bottom / Top / Span / Top (best-fit): unit not given here. Particulars: for Top: best-fit. The protocol: as §1
SSTR3 mutants (Homo sapiens, UniProt P32745, N104V), sequence (P32745 whole entry N104V): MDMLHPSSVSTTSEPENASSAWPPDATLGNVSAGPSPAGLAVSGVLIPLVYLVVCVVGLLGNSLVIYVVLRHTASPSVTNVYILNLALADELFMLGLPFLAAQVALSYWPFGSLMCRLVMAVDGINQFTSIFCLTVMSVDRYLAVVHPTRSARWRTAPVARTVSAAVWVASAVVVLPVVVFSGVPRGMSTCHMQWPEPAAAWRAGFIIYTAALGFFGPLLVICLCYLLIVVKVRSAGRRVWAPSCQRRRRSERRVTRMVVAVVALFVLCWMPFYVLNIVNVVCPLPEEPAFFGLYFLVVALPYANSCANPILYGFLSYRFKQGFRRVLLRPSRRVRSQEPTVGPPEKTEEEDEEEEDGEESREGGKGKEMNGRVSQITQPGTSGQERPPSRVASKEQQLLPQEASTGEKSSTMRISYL
The target of test [5] is T2, SSTR3 mutants (Homo sapiens, UniProt P32745, M193I).
T2 construct: The human full-length SSTRs and mutants were cloned into the pcDNA3.1+ vector; expressed in transfected cells; host or cells: HEK293 (ATCC, CRL-1573)
T2 sequence (P32745 whole entry M193I): as the sequence (P32745 whole entry N104V) above, with V104N, M193I counted along it
Described as above. Details: Bottom / Top / Span / Top (best-fit): unit not given here. Format: cell-based. As to the method:
as §1

The next test has as its system SSTR1–5. Briefly: Gi signaling of SSTR1–5, cAMP inhibition, HEK293. The test is classed as cell-based, human. The conditions noted are these: SSTR2 versus other SSTRs. As to the method: as §1
The target in test [6] is SSTR2 mutants (Homo sapiens, UniProt P30874, R140A). As to the kind of experiment: cell-based.
SSTR2 mutants (Homo sapiens, UniProt P30874, R140A), sequence (P30874 whole entry R140A): as the sequence (P30874 whole entry N276A) above, with R140A, A276N counted along it
Test [7] has as its target T1, SSTR2 mutants. Briefly: cell-based.
Test [8] has as its target SSTR2 mutants (Homo sapiens, UniProt P30874, Y312A). As to the kind of experiment: cell-based.
In test [9] the target is SSTR2 mutants (Homo sapiens, UniProt P30874, I284A). As to the kind of experiment: SSTRs Gi-mediated cAMP inhibition, GloSensor, HEK293, 5 μM forskolin, 15 min room temperature (SSTR2 mutants). Particulars: I284A, best-fit, runs 1-3. More on the design: The human full-length SSTRs and mutants were cloned into the pcDNA3.1+ vector; expressed in transfected cells; host or cells: HEK293 (ATCC, CRL-1573); Best-fit Bottom, cAMP inhibition / Best-fit Top, cAMP inhibition / Span, cAMP inhibition / Bottom (best-fit value) / Top (best-fit value) / Span (best-fit value) / Span (best-fit) / Bottom (best-fit) / Top (best-fit) / Best-fit Bottom / Best-fit Top / Best-fit Span / Top / Span: scale not given here. The test is classed as cell-based. The protocol:
The levels of the intracellular 3′, 5′-cyclic AMP (cAMP) were measured by the GloSensor cAMP assay (Promega) as described in the previous studies[28],[41] which has been widely used. The human full-length SSTRs and mutants were cloned into the pcDNA3.1+ vector with a HA signal sequence followed by a Flag tag at the N-terminus. HEK293 cells (ATCC, CRL-1573) were seeded into 6-well microplates at a density of 1.0 × 10^6 cells/well and cultured for 24 h at 37 °C with 5% CO2. Cells were then co-transfected with SSTR wild-type or mutants and GloSensor plasmids. After 24 h of transfection, the cells were dissociated with TrypLE™ Express Enzyme (1X) (Thermo Fisher Scientific) and collected by centrifugation at 500 × g for 5 min. Then the collected cells were suspended in Hank’s balanced salt solution [HBSS (Thermo Fisher Scientific)] supplemented with […] (YEASEN), and then the suspension cells were seeded into 96-well plates with 90 μl/well. After incubating at room temperature for 40 min, 5 μM forskolin and ligands diluted in HBSS were added to each well and the plates were incubated at room temperature for 15 min. […] were measured using the Synergy H1 microplate reader (BioTek) and the data presented are means of at least three independent experiments.

Where “and” joins values, the source holds several entries; their conditions need not be identical. Identical values can stand only once. Entries after “also recorded” stand apart in the source; their conditions may differ. Like-named read-outs stand apart in the source and are kept apart here.

SSTR3 mutants (Homo sapiens, UniProt P32745, F296D), sequence (P32745 whole entry F296D): as the sequence (P32745 whole entry N104V) above, with V104N, F296D counted along it
SSTR2 mutants (Homo sapiens, UniProt P30874, I284A), sequence (P30874 whole entry I284A): as the sequence (P30874 whole entry N276A) above, with A276N, I284A counted along it
SSTR2 mutants (Homo sapiens, UniProt P30874, Y312A), sequence (P30874 whole entry Y312A): as the sequence (P30874 whole entry N276A) above, with A276N, Y312A counted along it

In the case of `C[C@@H](O)[C@@H]1NC(=O)[C@H](CCCCN)NC(=O)[C@@H](Cc2c[nH]c3ccccc23)NC(=O)[C@H](Cc2ccccc2)NC(=O)[C@@H](NC(=O)[C@H](N)Cc2ccccc2)CSSC[C@@H](C(=O)N[C@H](CO)[C@@H](C)O)NC1=O` [octreotide], the Binding to mutant entry in the test on SSTR2 Y302A mutant is recorded as “nearly abolished the binding”.
Regarding `N#Cc1cccc(-c2ccc3ncc(-c4cc(F)cc(F)c4)c(N4CCC(N)CC4)c3c2)c1O` [paltusotine], the Emax at SSTR2 mutants [1] was 81 ± 1.71%; at SSTR3 mutants [3] (HEK293), 65.5 ± 6.4%; at SSTR3 mutants [5] (HEK293, Suppl. Table 4, SSTR3 M193(45.52)I, n=3), 38.8 ± 17.4%. For the same compound, the “Receptor activation of mutants” value in the test with SSTR3 mutants [2] was “increased paltusotine-induced SSTR3 activation”. Besides, the EC50 at SSTR3 mutants [3] was 309 ± 6.3 nM; on SSTR3 mutants [3] (best-fit, SSTR3 F296D-1, read-out: EC50), 978 nM; on SSTR3 mutants [3] (best-fit, SSTR3 F296D-2, read-out: EC50), 236 nM; at SSTR3 mutants [3] (best-fit, SSTR3 F296D-3, read-out: EC50), 115 nM; on SSTR3 mutants [4], 97.8 nM; on SSTR3 mutants [5] (Suppl. Table 4, SSTR3 M193(45.52)I, n=3) it was 184 ± 6.02 nM. The EC50 at SSTR3 mutants [5] (best-fit, SSTR3 M193I-1) was found to be 590 nM; on SSTR2 mutants [6], 7.8 ± 1.47 nM; at SSTR2 mutants [7] it was 145.2 ± 1.11 nM; on SSTR2 mutants [8], 8.13 ± 1.64 nM. For the same compound, the “Fold of WT” value on SSTR3 mutants [3] (Suppl. Table 4, SSTR3 F296(7.35)D) was 4.84; on SSTR3 mutants [5] (Suppl. Table 4, SSTR3 M193(45.52)I), 2.89. The Bottom on SSTR3 mutants [3] (best-fit, SSTR3 F296D-1) was 5.089; on SSTR3 mutants [3] (best-fit, SSTR3 F296D-2), 18.98; on SSTR3 mutants [3] (best-fit, SSTR3 F296D-3), 12.18; at SSTR3 mutants [5] (best-fit, SSTR3 M193I-1), -5.898; at SSTR3 mutants [5] (best-fit, SSTR3 M193I-2) it was 0.4332; at SSTR3 mutants [5] (best-fit, SSTR3 M193I-3), 0.4332. The LogEC50 on SSTR3 mutants [3] (best-fit, SSTR3 F296D-1) is given as -6.01; at SSTR3 mutants [3] (best-fit, SSTR3 F296D-2), -6.627; on SSTR3 mutants [3] (best-fit, SSTR3 F296D-3), -6.94; on SSTR3 mutants [5] (best-fit, SSTR3 M193I-1), -6.229; at SSTR3 mutants [5] (best-fit, SSTR3 M193I-2), ~ -3.924; at SSTR3 mutants [5] (best-fit, SSTR3 M193I-3), ~ -3.924. For the same compound, the Span on SSTR3 mutants [3] (best-fit, SSTR3 F296D-1) is given as 99.77; at SSTR3 mutants [3] (best-fit, SSTR3 F296D-2) it was 120; at SSTR3 mutants [3] (best-fit, SSTR3 F296D-3) it was 133.1; on SSTR3 mutants [5] (best-fit, SSTR3 M193I-1), 76.32; on SSTR3 mutants [5] (best-fit, SSTR3 M193I-2) it was ~ 6676; at SSTR3 mutants [5] (best-fit, SSTR3 M193I-3), ~ 6676. Moreover, the Span on SSTR2 mutants [9] was 112.7 and 91.59 and 139.6. For the same compound, the Top was 104.9 at SSTR3 mutants [3] (best-fit, SSTR3 F296D-1); 139 on SSTR3 mutants [3] (best-fit, SSTR3 F296D-2); 145.3 at SSTR3 mutants [3] (best-fit, SSTR3 F296D-3); 184 on SSTR3 mutants [4] (SSTR3 N101V-1); 142.6 at SSTR3 mutants [4] (SSTR3 N101V-2); 142.6 at SSTR3 mutants [4] (SSTR3 N101V-3). Moreover, the Top at SSTR3 mutants [5] (best-fit, SSTR3 M193I-1) is 70.42; on SSTR3 mutants [5] (best-fit, SSTR3 M193I-2) it was ~ 6677; on SSTR3 mutants [5] (best-fit, SSTR3 M193I-3), ~ 6677; at SSTR2 mutants [9], 112.9 and 105.5 and 122.9. Besides, the Subtype selectivity result with SSTR1–5 is “highly selective agonist of SSTR2 relative to other SSTR subtypes; also recorded: more potent selectivity for SSTR2; also recorded: higher selectivity and efficacy towards SSTR2 relative to other group 2 SSTRs”.
